According to patent US20240158446A1, “CYCLIC COMPOUND HAVING SELECTIVE INHIBITORY ACTION ON KRAS OVER HRAS AND NRAS” (CHUGAI SEIYAKU KABUSHIKI KAISHA, priority 2021, published 2024):

What was measured:
[1] = target: GDP-bound KRAS wild-type protein (Homo sapiens, UniProt P01116); assay: Binding to KRAS by surface plasmon resonance (SPR), Single Cycle Kinetics; details: SPR Single Cycle Kinetics, GDP-bound KRAS wild-type protein, 1:1 binding model; read-out: KRAS KD
[2] = target: GDP-bound NRAS wild-type protein (Homo sapiens, UniProt P01111); assay: Binding to NRAS by surface plasmon resonance (SPR), Single Cycle Kinetics; details: SPR KD ratio NRAS/KRAS, class symbols
GDP-bound NRAS wild-type protein, sequence (P01111 whole entry): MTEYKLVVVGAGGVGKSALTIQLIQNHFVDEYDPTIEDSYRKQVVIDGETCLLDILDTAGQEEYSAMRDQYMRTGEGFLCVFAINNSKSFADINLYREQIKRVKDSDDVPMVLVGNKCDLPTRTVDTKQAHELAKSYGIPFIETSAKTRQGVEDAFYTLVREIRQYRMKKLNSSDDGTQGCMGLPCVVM

[3] = target: GDP-bound HRAS wild-type protein (Homo sapiens, UniProt P01112); assay: Binding to HRAS by surface plasmon resonance (SPR), Single Cycle Kinetics; details: SPR KD ratio HRAS/KRAS, class symbols
GDP-bound HRAS wild-type protein, sequence (P01112 whole entry): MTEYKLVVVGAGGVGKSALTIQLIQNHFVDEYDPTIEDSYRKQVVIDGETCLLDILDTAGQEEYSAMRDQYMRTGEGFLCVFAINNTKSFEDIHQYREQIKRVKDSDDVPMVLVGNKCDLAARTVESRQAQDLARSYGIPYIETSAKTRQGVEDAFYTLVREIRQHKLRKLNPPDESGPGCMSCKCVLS

[4] = test system: human lung cancer strain NCI-H441;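 note: cell proliferation inhibition after four days measured by CellTiter-Glo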

GDP-bound KRAS wild-type protein, sequence (P01116 whole entry): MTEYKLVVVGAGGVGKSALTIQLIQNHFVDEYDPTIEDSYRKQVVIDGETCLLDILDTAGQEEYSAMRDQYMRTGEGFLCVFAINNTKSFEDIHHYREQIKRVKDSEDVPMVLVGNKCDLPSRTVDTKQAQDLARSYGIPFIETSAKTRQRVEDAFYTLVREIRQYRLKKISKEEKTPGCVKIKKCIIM

Structure (SMILES)	Kd [1] [nM]	IC50 [4] [nM]	NRAS/KRAS (ratio of KD value with respect to GDP-bound NRAS wild-type protein to KD value with respect to KRAS) [2]	HRAS/KRAS (ratio of KD value with respect to GDP-bound HRAS wild-type protein to KD value with respect to KRAS) [3]
CCC(CC)[C@H]1C(=O)N(C)[C@H](C(=O)N(C)C)CC(=O)N(C)[C@@H](COC)C(=O)N[C@@H]([C@@H](C)CC)C(=O)N(C)CC(=O)N(C)[C@H]2C/C=C\CCN(C2=O)[C@@H](Cc2ccc(C(F)(F)F)cc2)C(=O)N(C)CC(=O)N[C@@H](CCc2ccc(Cl)c(Cl)c2)C(=O)N2C[C@H](OC3CCCC3)C[C@H]2C(=O)NC2(CC(C)(C)C2)C(=O)N1C [PP2648]	0.85	68.5	A (a compound having 10 or more and less than 20 is denoted as A)	A (a compound having 10 or more and less than 20 is denoted as A)
CCC(CC)[C@H]1C(=O)N(C)[C@H](C(=O)N(C)C)CC(=O)N(C)[C@@H](COC)C(=O)N[C@@H]([C@@H](C)CC)C(=O)N(C)CC(=O)N(C)[C@H]2C/C=C\CCN(C2=O)[C@@H](Cc2ccc(C(F)F)cc2)C(=O)N(C)CC(=O)N[C@@H](CCc2ccc(Cl)c(Cl)c2)C(=O)N2C[C@H](OC3CCCC3)C[C@H]2C(=O)NC2(CC(C)(C)C2)C(=O)N1C [PP2649]	0.4	61	AA (a compound having 20 or more is denoted as AA)	A (a compound having 10 or more and less than 20 is denoted as A)
CCC(CC)[C@H]1C(=O)N(C)[C@H](C(=O)N(C)C)CC(=O)N(C)[C@@H](COC)C(=O)N[C@@H]([C@@H](C)CC)C(=O)N2CCC[C@H]2C(=O)N(C)[C@H]2C/C=C\CCN(C2=O)[C@@H](Cc2ccc(C(F)(F)F)cc2)C(=O)N(C)CC(=O)N[C@@H](CCc2ccc(Cl)c(Cl)c2)C(=O)N2C[C@H](OC3CCCC3)C[C@H]2C(=O)NC2(CC(C)(C)C2)C(=O)N1C [PP2651]	1.9	147	AA (a compound having 20 or more is denoted as AA)	A (a compound having 10 or more and less than 20 is denoted as A)
CCC(CC)[C@H]1C(=O)N(C)[C@H](C(=O)N(C)C)CC(=O)N(C)[C@@H](COC)C(=O)N[C@@H]([C@@H](C)CC)C(=O)N2CCC[C@H]2C(=O)N(C)[C@H]2C/C=C\CCN(C2=O)[C@@H](Cc2ccc(C(F)F)cc2)C(=O)N(C)CC(=O)N[C@@H](CCc2ccc(Cl)c(Cl)c2)C(=O)N2C[C@H](OC3CCCC3)C[C@H]2C(=O)NC2(CC(C)(C)C2)C(=O)N1C [PP2652]	1.5	82.7	AA (a compound having 20 or more is denoted as AA)	A (a compound having 10 or more and less than 20 is denoted as A)
CC[C@H](C)[C@@H]1NC(=O)[C@H](COC)N(C)C(=O)C[C@@H](C(=O)N(C)C)N(C)C(=O)[C@H](C2CCCCC2)N(C)C(=O)C2(CC(C)(C)C2)NC(=O)[C@@H]2C[C@@H](OC3CCCC3)CN2C(=O)[C@H](CCc2cc(F)c(C(F)(F)F)c(F)c2)NC(=O)CN(C)C(=O)[C@H](Cc2ccc(C(F)(F)F)cc2)N2CC/C=C\C[C@@H](C2=O)N(C)C(=O)CN(C)C1=O [PP2656]	0.31	22.5	A (a compound having 10 or more and less than 20 is denoted as A)	B (a compound having 3 or more and less than 10 is denoted as B)
CCO[C@@H]1C[C@H]2C(=O)NC3(CC(C)(C)C3)C(=O)N(C)[C@@H](C3CCCCC3)C(=O)N(C)[C@H](C(=O)N(C)C)CC(=O)N(C)[C@@H](COC)C(=O)N[C@@H]([C@@H](C)CC)C(=O)N(C3CC3)CC(=O)N(C)[C@H]3C/C=C\CCN(C3=O)[C@@H](Cc3ccc(C(F)(F)F)cc3)C(=O)N(C)CC(=O)N[C@@H](CCc3cc(F)c(C(F)(F)F)c(F)c3)C(=O)N2C1 [PP2657]	0.44	29.2	A (a compound having 10 or more and less than 20 is denoted as A)	A (a compound having 10 or more and less than 20 is denoted as A)
CC[C@H](C)[C@@H]1NC(=O)[C@H](COC)N(C)C(=O)C[C@@H](C(=O)N2CCCCC2)N(C)C(=O)[C@H](C2CCCC2)N(C)C(=O)C2(CC(C)(C)C2)NC(=O)[C@@H]2C[C@@H](OC3CCC3)CN2C(=O)[C@H](CCc2cc(F)c(C(F)(F)F)c(F)c2)NC(=O)CN(C)C(=O)[C@H](Cc2ccc(C(F)(F)F)cc2)N2CC/C=C\C[C@@H](C2=O)N(C)C(=O)CN(C)C1=O [PP2664]	0.37	19.8	A (a compound having 10 or more and less than 20 is denoted as A)	B (a compound having 3 or more and less than 10 is denoted as B)
CC[C@H](C)[C@@H]1NC(=O)[C@H](COC)N(C)C(=O)C[C@@H](C(=O)N2CCCCC2)N(C)C(=O)[C@H](C2CCCC2)N(C)C(=O)C2(CC(C)(C)C2)NC(=O)[C@@H]2C[C@@H](OC3CCCC3)CN2C(=O)[C@H](CCc2cc(F)c(C(F)(F)F)c(F)c2)NC(=O)CN(C)C(=O)[C@H](Cc2ccc(C(F)(F)F)cc2)N2CC/C=C\C[C@@H](C2=O)N(C)C(=O)CN(C)C1=O [PP2665]	0.56	23.4	A (a compound having 10 or more and less than 20 is denoted as A)	A (a compound having 10 or more and less than 20 is denoted as A)

These reach a lower Kd [1]. Values come first.

Kd [1] [nM]	IC50 [4] [nM]	Structure (SMILES)	NRAS/KRAS (ratio of KD value with respect to GDP-bound NRAS wild-type protein to KD value with respect to KRAS) [2]	HRAS/KRAS (ratio of KD value with respect to GDP-bound HRAS wild-type protein to KD value with respect to KRAS) [3]
0.12	12.4	CC[C@H](C)[C@@H]1NC(=O)[C@H](COC)N(C)C(=O)C[C@@H](C(=O)N(C)C)N(C)C(=O)[C@H](C2CCCCC2)N(C)C(=O)C2(CC(C)(C)C2)NC(=O)[C@@H]2C[C@@H](OC(C)C)CN2C(=O)[C@H](CCc2cc(F)c(C(F)(F)F)c(F)c2)NC(=O)CN(C)C(=O)[C@H](Cc2ccc(C(F)(F)F)cc2)N2CC/C=C\C[C@@H](C2=O)N(C)C(=O)CN(C)C1=O [PP2654]	A (a compound having 10 or more and less than 20 is denoted as A)	A (a compound having 10 or more and less than 20 is denoted as A)
0.1	17	CC[C@H](C)[C@@H]1NC(=O)[C@H](COC)N(C)C(=O)C[C@@H](C(=O)N(C)C)N(C)C(=O)[C@H](C2CCCCC2)N(C)C(=O)C2(CC(C)(C)C2)NC(=O)[C@@H]2C[C@@H](OC3CCC3)CN2C(=O)[C@H](CCc2cc(F)c(C(F)(F)F)c(F)c2)NC(=O)CN(C)C(=O)[C@H](Cc2ccc(C(F)(F)F)cc2)N2CC/C=C\C[C@@H](C2=O)N(C)C(=O)CN(C)C1=O [PP2655]	AA (a compound having 20 or more is denoted as AA)	A (a compound having 10 or more and less than 20 is denoted as A)
0.19	20.6	CCO[C@@H]1C[C@H]2C(=O)NC3(CC(C)(C)C3)C(=O)N(C)[C@@H](C3CCCCC3)C(=O)N(C)[C@H](C(=O)N(C)C)CC(=O)N(C)[C@@H](COC)C(=O)N[C@@H]([C@@H](C)CC)C(=O)N(C)CC(=O)N(C)[C@H]3C/C=C\CCN(C3=O)[C@@H](Cc3ccc(C)cc3)C(=O)N(C)CC(=O)N[C@@H](CCc3cc(F)c(C(F)(F)F)c(F)c3)C(=O)N2C1 [PP2659]	A (a compound having 10 or more and less than 20 is denoted as A)	A (a compound having 10 or more and less than 20 is denoted as A)
0.18	14.3	CC[C@H](C)[C@@H]1NC(=O)[C@H](COC)N(C)C(=O)C[C@@H](C(=O)N(C)C)N(C)C(=O)[C@H](C2CCCCC2)N(C)C(=O)C2(CC(C)(C)C2)NC(=O)[C@@H]2C[C@@H](OC(C)C)CN2C(=O)[C@H](CCc2cc(F)c(C(F)(F)F)c(F)c2)NC(=O)CN(C)C(=O)[C@H](Cc2ccc(C)cc2)N2CC/C=C\C[C@@H](C2=O)N(C)C(=O)CN(C)C1=O [PP2660]	A (a compound having 10 or more and less than 20 is denoted as A)	A (a compound having 10 or more and less than 20 is denoted as A)
0.27	13.4	CCO[C@@H]1C[C@H]2C(=O)NC3(CC(C)(C)C3)C(=O)N(C)[C@@H](C3CCCCC3)C(=O)N(C)[C@H](C(=O)N(C)C)CC(=O)N(C)[C@@H](COC)C(=O)N[C@@H]([C@@H](C)CC)C(=O)N(C)CC(=O)N(C)[C@H]3C/C=C\CCN(C3=O)[C@@H](Cc3ccc(C(F)(F)F)cc3)C(=O)N(C)CC(=O)N[C@@H](CCc3ccc(Cl)c(Cl)c3)C(=O)N2C1 [PP2661]	AA (a compound having 20 or more is denoted as AA)	A (a compound having 10 or more and less than 20 is denoted as A)
0.29	13.1	CC[C@H](C)[C@@H]1NC(=O)[C@H](COC)N(C)C(=O)C[C@@H](C(=O)N(C)C)N(C)C(=O)[C@H](C2CCCCC2)N(C)C(=O)C2(CC(C)(C)C2)NC(=O)[C@@H]2C[C@@H](OC(C)C)CN2C(=O)[C@H](CCc2ccc(Cl)c(Cl)c2)NC(=O)CN(C)C(=O)[C@H](Cc2ccc(C(F)(F)F)cc2)N2CC/C=C\C[C@@H](C2=O)N(C)C(=O)CN(C)C1=O [PP2662]	AA (a compound having 20 or more is denoted as AA)	A (a compound having 10 or more and less than 20 is denoted as A)
